According to publication PMC10458971, “Chemical Constituents with Anti-Lipid Droplet Accumulation and Anti-Inflammatory Activity from Elaeagnus glabra” (Plants, 2023):
“Also recorded” adds a separate entry of the source. Read-outs that look alike come from different tables or passages of the source. One block for each compound: values may come before it.

Columns and labels:
Type in all cases: cell-based
[1] = tested on: fMLP/CB-induced human neutrophils; test: Superoxide anion generation in fMLP/CB-induced human neutrophils; conditions: for IC50: fMLP/CB-induced human neutrophils, mean ± S.E.M. (n = 3–4); for Inhibitory activity toward superoxide anion generation or elastase release (preliminary screening, Inh%): 10 μM, Figure 6
Text: (§1) NAFLD is accompanied by inflammation. In the NASH stage, the liver is inflamed. As the NAFLD progresses, persistent inflammation causes scar tissue around the liver; this is called the fibrosis stage. After years of inflammation, liver damage occurs and becomes cirrhosis. To explore the potential of compounds for managing inflammation, eight compounds were preliminarily evaluated for their effects on neutrophil pro-inflammatory responses by suppressing fMLP/CB-induced superoxide anion generation and elastase release (Figure 6 and Table 4). […] These two compounds were further evaluated for their anti-inflammatory activity IC50 values (Table 4).
(§2) Neutrophils were collected from healthy adults aged 20–35 and isolated using Ficoll-Paque density separation. The study was approved by Chang Gung Memorial Hospital’s Institutional Review Board (IRB No. 201902217A3) following the Declaration of Helsinki guidelines. The methods for testing the effects of isolates on superoxide anion generation and elastase release in neutrophils were based on studies published by Professor Tsong-Long Hwang. Ferricytochrome c (0.6 mg/mL) was used to measure superoxide anion. Elastase substrate (methoxysuccinyl-Ala-Ala-Pro-Val-p-nitroanilide, 100 µM; Merck) was employed to detect the elastase release. The elastase level was detected using a spectrophotometer at OD 405 nm. A PI3K inhibitor, namely, LY29002, was used as a positive control in the neutrophil assays. All assays were repeated at least three times. Results are presented as the mean ± standard error of the mean (S.E.M.). Student′s t-test was used to compare the test isolates with a DMSO (0.1%) control. A probability of less than 0.05 was considered significant.

[2] = tested on: fMLP/CB-induced human neutrophils; test: Elastase release in fMLP/CB-induced human neutrophils; conditions: mean ± S.E.M. (n = 3–4)
Text: as §1, §2

AML12 cell line [3] = test: LD assay: anti-lipid droplet accumulation in oleic-acid-treated AML12 cells (BODIPY 493/503)
Procedure: (§3) In this study, twelve compounds present in sufficient amounts (9, 11, 15, 16, 18–20, 22, 25, 30, 31, and 37) were evaluated for anti-LD accumulation activity (Table 3). To assess the anti-LD formation activity, the average LD counts/cell of bovine serum albumin (BSA)-conjugated oleic acid (OA) + drug vehicle (DMSO)-treated wells (hereinafter referred to as OA) were used as the standard for 100% fat loading, and triacsin C (TC) was used as the reference control. […] In Figure 5A, the blue pseudocolor indicates the nuclei area, and the green ones depict the LD area.
Figure 5 Effect of methyl pheophorbide a (37) on LD accumulation. (A) Representative images of the anti-LD formation activity of methyl pheophorbide a (37). (B) Quantification results of the LD assay and cell viability. AML12 cells were treated with BSA or OA (125 µM) with 20 µM methyl pheophorbide a (37) for 24 h. AML12 cells were used as a cell model for lipid accumulation—they were treated with 125 μM oleic acid (OA) for 24 h. Nuclei and LD were stained with Hoechst 33342 (blue) and BODIPY® 493/503 (green), respectively. The asterisk indicates a significant difference from the solvent control cells (*** p < 0.001, one-way ANOVA). TEXT PRINTED IN THE PICTURE: (B) BSA: Normalized LD Count (%): 17.3% *** | (B) OA: Normalized LD Count (%): 100.0% | (B) OA + 37: Normalized LD Count (%): 0.3% ***
(§4) Cells were cultured as described previously. The medium for AML12 (BCRC 60326; Bioresources Collection and Research Center (BCRC), Hsinchu, Taiwan) was a 1:1 mixture of DMEM and Ham’s F12 medium with 10% FBS and 1× ITS-A supplement (Thermo Fisher Scientific).
The LD accumulation of the test compounds was evaluated according to the studies published by co-author Professor Chia-Hung Yen. The LD accumulation was detected by BODIPY® 493/503 dye (Thermo Fisher Scientific). LD accumulation was achieved by treating cells with OA conjugated to BSA. All data were analyzed with GraphPad Prism 6.01 software (La Jolla, CA, USA). One-way analysis of variance (ANOVA) followed by Tukey’s comparison test was used to compare differences between multiple groups. A p-value < 0.05 was considered statistically significant.

[4] = Cell viability (nucleus counts, DAPI image) in AML12 cells; conditions: mouse
Procedure: as §3, §4

AML12 cell line [5] = test: as above; conditions: AML12; for Cell Viability (%, 24h, DAPI Image): compound 100 μg/mL, nucleus counts of DMSO = 100%
Procedure: as §3, §4

[6] = Mus musculus, compound 100 μg/mL, AML12, average LD counts/cell of oleic-acid-treated group = 100% fat-loading, read-out: Relative Lipid Droplet Count (%)
[7] = AML12 cells, compound 100 μg/mL, 24 h, AML12, nucleus counts of DMSO = 100%, read-out: Cell Viability (%, 24h, DAPI Image)
[8] = compound 100 μg/mL, AML12, average LD counts/cell of oleic-acid-treated group = 100% fat-loading
[9] = Mus musculus, AML12, read-out: Relative Lipid Droplet Count (%)
[10] = compound 100 μg/mL, 24 h, AML12, nucleus counts of DMSO = 100%, read-out: Cell Viability (%, 24h, DAPI Image)

IC50 [1]: > 10 µM
IC50 [2]: > 10 µM
Compound: C=C(C)C1CCC2(C(=O)O)CCC3(C)C(CCC4C5(C)CCC(OC(=O)C=Cc6ccc(O)c(O)c6)C(C)(C)C5CCC43C)C12 (single isomer, unassigned; (+)) [(+)-3β-O-trans-caffeoyl betulinic acid]

IC50 [1]: > 10 µM
IC50 [2]: > 10 µM
Compound: CC1(C)CCC23CCC4(C)C5(C)CCC6C(C)(CO)C(O)C(O)CC6(C)C5C5OC5C4(OC2=O)C3C1 (stereo not drawn) [2α,3β,23-trihydroxy-11α,12α-epoxyolean-28,13β-olide]

IC50 [1]: 3.01 ± 0.58 µM
IC50 [2]: > 10 µM
Compound: CC1(C)CC[C@]2(C(=O)O)CC[C@]3(C)C(=CCC4[C@@]5(C)CC[C@H](OC(=O)/C=C/c6ccc(O)c(O)c6)C(C)(C)C5CC[C@]43C)C2C1 (stereo partly shown) [3-O-(E)-caffeoyloleanolic acid (13), 3-O-(E)-caffeoyloleanolic acid]
Inhibitory activity toward superoxide anion generation or elastase release (preliminary screening, Inh%) [1]: significant inhibitory activity

IC50 ([1]; Homo sapiens, Neutrophil): > 10 µM
IC50 ([2]; Homo sapiens, Neutrophil): > 10 µM
Compound: O=C(O)c1ccc(CCO)cc1 [4-(2-hydroxyethyl)benzoic acid (26), 4-(2-hydroxyethyl)benzoic acid]

Compound: Oc1cc(O)c2c(c1)O[C@@H](c1ccc(O)c(O)c1)[C@H](O)C2 [(−)-catechin (16), (−)-catechin]
activity at 100 µg/mL (AML12 cell line [3]; [6]): 111 ± 5.1%
viability at 24 h, 100 μg/mL [4, 7]: 154 ± 12.3%

Compound: Oc1cc(O)c2c(c1)O[C@H](c1ccc(O)c(O)c1)[C@H](O)C2 [(−)-epicatechin (18), (−)-epicatechin]
activity at 100 µg/mL (AML12 cell line [3]; [6]): 116 ± 6%
viability at 24 h, 100 μg/mL [4, 7]: 146 ± 10.3%

Compound: Oc1cc(O)c2c(c1)O[C@H](c1cc(O)c(O)c(O)c1)[C@H](O)C2 [(−)-epigallocatechin (19), (−)-epigallocatechin]
Relative Lipid Droplet Count (%) (AML12 cell line [3]; [8]): 93.5 ± 6.6%

Compound: Oc1cc(O)c2c(c1)O[C@@H](c1cc(O)c(O)c(O)c1)[C@H](O)C2 [(−)-gallocatechin (20), (−)-gallocatechin]
activity at 100 µg/mL (AML12 cell line [3]; [6]): 117 ± 7.8%
viability at 24 h, 100 μg/mL [4]: 154 ± 6.2%

IC50 ([1]; Homo sapiens, Neutrophil): 1.29 ± 0.52 µM
IC50 ([2]; Homo sapiens, Neutrophil): 2.61 ± 0.72 µM
Compound: O=c1cc(N2CCOCC2)oc2c(-c3ccccc3)cccc12 [LY294002, reference compound]

Compound: CCC/C=C/C/C=C/C=C/C=N/NN=O [TC, Triacsin C, reference compound]
activity at 0.008 µM (AML12 cell line [3]; [9]): 60.6 ± 0.2%
viability at 24 h, 0.008 µM ([4]; positive control, drug concentration 8 nM, 24 h, AML12, DMSO = 100%): 126 ± 6.1%

IC50 [1]: > 10 µM
IC50 [2]: > 10 µM
Compound: CC1(C)CC[C@]2(C(=O)O)CC[C@]3(C)C(=C[C@@H](O)[C@@H]4[C@@]5(C)C[C@@H](O)[C@H](O)[C@@](C)(CO)[C@@H]5CC[C@]43C)[C@@H]2C1 [cleistocalyxic acid E (7), cleistocalyxic acid E]

IC50 ([1]; Homo sapiens, Neutrophil): > 10 µM
IC50 ([2]; Homo sapiens, Neutrophil): > 10 µM
Compound: CC1(C)CC[C@@]23CC[C@]4(C)[C@@](OC2=O)([C@@H]3C1)[C@H]1O[C@H]1[C@@H]1[C@@]2(C)CC[C@H](OC(=O)/C=C/c3ccc(O)c(O)c3)C(C)(C)[C@@H]2CC[C@]14C [elaeagterpene A (2), (3S,4aR,6aR,6bS,8aS,12aR,12bS,12cS,13aS,13bR,13cS)-4,4,6a,6b,11,11,13c-Heptamethyl-15-oxooctadecahydro-1H,9H-12b,8a-(epoxymethano)piceno [13,14-b]oxiren-3-yl(E)-3-(3,4-dihydroxyphenyl)acrylate]

Compound: C=C(C)[C@@H]1CC[C@]2(C)CC[C@]3(C)[C@H](CC[C@@H]4[C@@]5(C)CC[C@H](O)C(C)(C)[C@@H]5CC[C@]43C)[C@@H]12 [lupeol (9), lupeol]
activity at 100 µg/mL (AML12 cell line [3]; [6]): 95.2 ± 1.8%
viability at 24 h, 100 μg/mL [4, 7]: 114 ± 3.6%

IC50 ([2]; Homo sapiens, Neutrophil): < 3 µM
IC50 [2]: 2.35 ± 0.12 µM
Compound: C=Cc1c(C)c2cc3nc(c4c5[nH]c(cc6nc(cc1[nH]2)C(C)=C6CC)c(C)c5C(=O)[C@@H]4C(=O)OC)[C@@H](CCC(=O)OC)[C@@H]3C [methyl pheophorbide a (37), methyl pheophorbide a]
LD content reduction (AML12 cell line [3]; 20 μM, AML12): more than 90%
Normalized LD Count (%) / normalized LD content (AML12 cell line [3]; 20 μM, AML12, OA 125 μM, 24 h, OA = 100%): 0.3%
activity at 100 µg/mL (AML12 cell line [3]; [6]): 0.3 ± 0.1%
viability at 24 h, 100 μg/mL [4, 7]: 99.5 ± 5.4%
Cytotoxicity (AML12 cell line [5]; 20 μM): without significant cytotoxic effects; also recorded: without cytotoxicity
Cell Viability (%, 24h, DAPI Image) (AML12 cell line [5]): did not affect the cell viability
Inhibitory activity toward superoxide anion generation or elastase release (preliminary screening, Inh%) [1]: significant inhibitory activity

Compound: COc1cc(C=O)cc(OC)c1O [syringaldehyde (25), syringaldehyde]
activity at 100 µg/mL (AML12 cell line [3]; [9]): 102 ± 5%
viability at 24 h, 100 μg/mL [4, 10]: 138 ± 5.7%
IC50 ([1]; Neutrophil): > 10 µM
IC50 ([2]; Neutrophil): > 10 µM

Compound: C[C@H]1[C@H](C)CC[C@]2(C(=O)O)CC[C@]3(C)C(=CC[C@@H]4[C@@]5(C)CC[C@H](O)C(C)(C)[C@@H]5CC[C@]43C)[C@H]12 [ursolic acid (11), ursolic acid]
activity at 100 µg/mL (AML12 cell line [3]; [6]): 99.2 ± 4%
viability at 24 h, 100 μg/mL [4, 7]: 146 ± 4.5%

Compound: CC[C@H](CC[C@@H](C)[C@H]1CC[C@H]2[C@@H]3CC=C4C[C@@H](O)CC[C@]4(C)[C@H]3CC[C@]12C)C(C)C [β-sitosterol (30), β-sitosterol]
activity at 100 µg/mL (AML12 cell line [3]; [9]): 113 ± 7.6%
viability at 24 h, 100 μg/mL [4, 10]: 128 ± 9.1%

Compound: CC[C@H](CC[C@@H](C)[C@H]1CC[C@H]2[C@@H]3CCC4=CC(=O)CC[C@]4(C)[C@H]3CC[C@]12C)C(C)C [β-sitosterone (31), β-sitosterone]
Relative Lipid Droplet Count (%) (AML12 cell line [3]; [8]): 121.5 ± 4.3%
Cell Viability (%, 24h, DAPI Image) (AML12 cell line [5]): 135.3 ± 7.3%

Compound: plumbocatechin A [plumbocatechin A (22)]
Relative Lipid Droplet Count (%) (AML12 cell line [3]; [8]): 118.2 ± 3.1%
Cell Viability (%, 24h, DAPI Image) (AML12 cell line [5]): 147.8 ± 9.6%

Compound: plumbocatechins B [plumbocatechins B (15)]
Relative Lipid Droplet Count (%) (AML12 cell line [3]; [8]): 105.9 ± 7.8%
Cell Viability (%, 24h, DAPI Image) (AML12 cell line [5]): 132.5 ± 11.8%
